Results: patent US7579504B2, “ABCA1 elevating compounds” (Gilead Sciences, Inc., priority 2005, dated 2009)

Tested on: ABCA1 mRNA
Test: ABCA1 mRNA induction in THP-1 cells, QuantiGene branched DNA assay
Type: cell-based
Settings: 18-20 hours; for fold induction at 10 µM: Homo sapiens, read-out: ABCA1 Induction Fold Increase over DMSO Vehicle
Experimental: Modulation of expression of ABCA1 mRNA levels by the compounds of the invention was determined in the following assays.
Induction of ABC1 in THP-1 cells, was measured using QuantiGene® branched DNA assay as per manufacturer's instructions. Cultures of THP-1 were grown to subconfluence in DMEM/10% FBS before replacement with DMEM/BSA and 10 and 3 μM concentrations of the test compounds in DMSO for 18-20 hours. After treatment of cells with compounds, the cells were lysed with lysis buffer at 37° C. for 20 minutes. The cell lysate and ABCA1 specific probe (Genospectra, Inc., Fremont, Calif.) mix were added to the 96 well capture plate and hybridized at 53° C. for 16-18 hours. The signal was amplified using the amplifier and label probes provided with the QuantiGene® assay followed by addition of a luminescent alkaline phosphatase substrate, dioxitane. Luminescence was quantified in Victor V plate reader.
Step 1 • Cells are lysed to release mRNA in the presence of target probes. Target mRNA from lysed cells was then captured by hybridization and transferred to the Capture Plate.
Step 2 • Signal amplification was performed by hybridization of the bDNA Amplifier and Label Probe.
Step 3 • Addition of chemiluminescence substrate yielded a QuantiGene® signal proportional to the amount of mRNA present in the sample.
Table 1 presents the relative fold increase in ABCA1 expression over DMSO for compounds of the invention when tested at a concentration of 10 μM.

CC(=O)Nc1nc(C)c(S(=O)(=O)N(Cc2ccccc2)CC2CCC(C(=O)NCc3ccc(C)cc3)CC2)s1 (stereo not drawn) [Compound 30, N-[4-methyl-5-({[(4-{N-[(4-methylphenyl)methyl]carbamoyl}cyclohexyl)methyl]benzylamino}sulfonyl)-1,3-thiazol-2-yl]acetamide]
fold induction at 10 µM: 3.9

COc1ccc(S(=O)(=O)N(Cc2ccccc2)CC2CCC(C(=O)NCc3ccc(C)cc3)CC2)cc1 (stereo not drawn) [Compound 45, [4-({[(4-methoxyphenyl)sulfonyl]benzylamino}methyl)cyclohexyl]-N-[(4-methylphenyl)methyl]carboxamide]
fold induction at 10 µM: 4.3

Cc1ccc(CNC(=O)C2CCC(CN(Cc3ccccc3)S(=O)(=O)c3ccc(Cl)cc3F)CC2)cc1 (stereo not drawn) [Compound 11, [4-({[(4-chloro-2-fluorophenyl)sulfonyl]benzylamino}methyl)cyclohexyl]-N-[(4-methylphenyl)methyl]carboxamide]
fold induction at 10 µM: 1.9

Cc1ccc(CNC(=O)C2CCC(CN(Cc3ccccc3)S(=O)(=O)c3ccc(C)c(Cl)c3)CC2)cc1 (stereo not drawn) [Compound 25, [4-({[(3-chloro-4-methylphenyl)sulfonyl]benzylamino}methyl)cyclohexyl]-N-[(4-methylphenyl)methyl]carboxamide]
fold induction at 10 µM: 3.5

Cc1ccc(CNC(=O)C2CCC(CN(Cc3ccccc3)S(=O)(=O)c3cccc(Cl)c3)CC2)cc1 (stereo not drawn) [Compound 20, [4-({[(3-chlorophenyl)sulfonyl]benzylamino}methyl)cyclohexyl]-N-[(4-methylphenyl)methyl]carboxamide]
fold induction at 10 µM: 4.3

{4-[({[4-(methylethyl)phenyl]sulfonyl}benzylamino)methyl]cyclohexyl}-N-[(4-methylphenyl)methyl]carboxamide [Compound 28]
ABCA1 Induction Fold Increase over DMSO Vehicle (10 μM): 2.7 fold

Cc1ccc(CNC(=O)C2CCC(CN(Cc3ccccc3)S(=O)(=O)c3cccs3)CC2)cc1 (stereo not drawn) [Compound 15, N-[(4-methylphenyl)methyl](4-{[benzyl(2-thienylsulfonyl)amino]methyl}cyclohexyl)carboxamide]
fold induction at 10 µM: 4.3

Cc1ccc(CNC(=O)C2CCC(CN(Cc3ccccc3)S(=O)(=O)c3cc(C)cc(C)c3)CC2)cc1 (stereo not drawn) [Compound 23, [4-({[(3,5-dimethylphenyl)sulfonyl]benzylamino}methyl)cyclohexyl]-N-[(4-methylphenyl)methyl]carboxamide]
fold induction at 10 µM: 4.1

Cc1ccc(CNC(=O)C2CCC(CN(Cc3cccc(F)c3F)S(=O)(=O)c3ccccc3)CC2)cc1 (stereo not drawn) [Compound 2, [4-({[(2,3-difluorophenyl)methyl](phenylsulfonyl)amino}methyl)cyclohexyl]-N-[(4-methylphenyl)methyl]carboxamide]
fold induction at 10 µM: 6.3

Cc1ccc(CNC(=O)C2CCC(CN(Cc3ccccc3)S(=O)(=O)c3ccccc3C(F)(F)F)CC2)cc1 (stereo not drawn) [Compound 35, N-[(4-methylphenyl)methyl]{4-[(benzyl{[2-(trifluoromethyl)phenyl]sulfonyl}amino)methyl]cyclohexyl}carboxamide]
fold induction at 10 µM: 6.1

Cc1ccc(CNC(=O)C2CCC(CN(Cc3ccccc3)S(=O)(=O)c3c(F)cccc3F)CC2)cc1 (stereo not drawn) [Compound 29, [4-({[(2,6-difluorophenyl)sulfonyl]benzylamino}methyl)cyclohexyl]-N-[(4-methylphenyl)methyl]carboxamide]
fold induction at 10 µM: 6.9

Cc1ccc(CNC(=O)C2CCC(CN([C@H](C)c3ccccc3)S(=O)(=O)c3ccccc3)CC2)cc1 (stereo partly drawn) [Compound 5, (4-{[((1R)-1-phenylethyl)(phenylsulfonyl)amino]methyl}cyclohexyl)-N-[(4-methylphenyl)methyl]carboxamide]
fold induction at 10 µM: 6.4

Cc1ccc(CNC(=O)C2CCC(CN(Cc3ccccc3)S(=O)(=O)c3cc(C(F)(F)F)cc(C(F)(F)F)c3)CC2)cc1 (stereo not drawn) [Compound 24, {4-[({[3,5-bis(trifluoromethyl)phenyl]sulfonyl}benzylamino)methyl]cyclohexyl}-N-[(4-methylphenyl)methyl]carboxamide]
fold induction at 10 µM: 0.9

Cc1ccc(CNC(=O)C2CCC(CN(Cc3ccccc3)S(=O)(=O)c3cc(F)cc(F)c3)CC2)cc1 (stereo not drawn) [Compound 17, [4-({[(3,5-difluorophenyl)sulfonyl]benzylamino}methyl)cyclohexyl]-N-[(4-methylphenyl)methyl]carboxamide]
fold induction at 10 µM: 4.5

Cc1ccc(CNC(=O)C2CCC(CN(Cc3ccccc3)S(=O)(=O)c3ccc(C(C)(C)C)cc3)CC2)cc1 (stereo not drawn) [Compound 13, {4-[({[4-(tert-butyl)phenyl]sulfonyl}benzylamino)methyl]cyclohexyl}-N-[(4-methylphenyl)methyl]carboxamide]
fold induction at 10 µM: 2.7

Cc1ccc(CNC(=O)C2CCC(CN(Cc3ccccc3)S(=O)(=O)c3cc(F)ccc3C)CC2)cc1 (stereo not drawn) [Compound 26, [4-({[(5-fluoro-2-methylphenyl)sulfonyl]benzylamino}methyl)cyclohexyl]-N-[(4-methylphenyl)methyl]carboxamide]
fold induction at 10 µM: 4.3

COc1ccc(S(=O)(=O)N(Cc2ccccc2)CC2CCC(C(=O)NCc3ccc(C)cc3)CC2)cc1OC (stereo not drawn) [Compound 18, [4-({[(3,4-dimethoxyphenyl)sulfonyl]benzylamino}methyl)cyclohexyl]-N-[(4-methylphenyl)methyl]carboxamide]
fold induction at 10 µM: 1.6

Cc1ccc(CNC(=O)C2CCC(CN(Cc3ccccc3)S(=O)(=O)c3cccc(F)c3)CC2)cc1 (stereo not drawn) [Compound 31, [4-({[(3-fluorophenyl)sulfonyl]benzylamino}methyl)cyclohexyl]-N-[(4-methylphenyl)methyl]carboxamide]
fold induction at 10 µM: 6.7
